The subject of experiment [1] is p-AKT1/2/3-S473 in KPL4 breast tumour cell line. Briefly: Cellular p-AKT1/2/3-S473 assay. It is filed as cell-based. Particulars: KPL4 breast tumour cell line, 2 hours treatment; read-out: pAKT-S743 median IC50. The method, then: The molecular mechanism of action was investigated in a set of experiments to assess the inhibition of the PI3K-AKT-mTOR pathway in responsive cell lines such as KPL4 breast tumour cell line (PIK3CAH1047R, HER20/E and hormone independent). The phospho-substrates of PI3K-AKT-mTOR axis were used as the read-outs to reflect pathway inhibition. Cells were seeded at 60-80% confluency per well in 96-well cell culture plates. After overnight incubation at 37° C. 5% CO2, cells were treated with compounds and vehicle at 37° C. for 2 hours. […] All measurements where at least done in duplicates and confirmed by independent repetition.
Alternatively pAKT-S473 was measured using the “Akt Duplex” of the MULTI-SPOT® Assay System (Fa. Meso Scale Discovery, Cat# N41100B-1) following manufacturers instructions. Each assay used 20 μg of protein extract and measured total AKT and p-AKT content simultaneously in one well. All measurements where at least done in duplicates and confirmed by independent repetition. Values for P-AKT are expressed as percentage of P-AKT level compared to total-AKT content of the extracts.

Experiment [2] concerns KPL-4 breast cancer cell line. Description: Tumor cell proliferation assay (CellTiter-Glo, 72 h), KPL-4. It is filed as cell-based. Conditions: KPL4, 72h drug exposure. The method, then:
Biological Assay 4.0: Tumor Cell Proliferation Assays
Compounds were tested in a cell-based assay that measures the capacity of the compounds to inhibit tumour cell proliferation following a 72h drug exposure. Cell viability is determined using CellTiter-Glow® (CTG, Promega, cat# G7571/2/3). The CellTiter-Glo® Luminescent Cell Viability Assay is a homogeneous method to determine the number of viable cells in culture. Detection is based on using the luciferase reaction to measure the amount of ATP from viable cells. The amount of ATP in cells correlates with cell viability. Within minutes after a loss of membrane integrity, cells lose the ability to synthesize ATP, and endogenous ATPases destroy any remaining ATP; thus the levels of ATP fall precipitously.
For each cell line assayed, cells were plated onto a separate plate for determination of […] at t=0 hour and t=72 hour time points. Following overnight incubation at 37° C., chemiluminescence values for the t=0 samples were determined after adding 10 μl medium and 100 μl CTG solution according to manufacture protocol. Plates for the t=72 hour time points were treated with compounds diluted into growth medium at ten times final concentration added in 10 μL to the cell culture plate. Cells were then incubated for 72 hours at 37° C. Chemiluminescence values for the t=72 hour samples were determined. […] Experiments were controlled using a reference compound as standard.
On the technique in general: ATP-based viability assays read luminescence as a measure of living cells.

For experiment [3], the target named is His-tagged human recombinant kinase full-length Akt1 (Homo sapiens (Human), UniProt P31749). Description: Akt1 kinase assay (TR-FRET). Conditions: 10 μM ATP; read-out: Akt1, median IC50. It is filed as biochemical. The method, then:
Biological Assay 1.0: Akt1 Kinase Assay
Akt1 inhibitory activity of compounds of the present invention was quantified employing the Akt1 TR-FRET assay as described in the following paragraphs.
As substrate for the kinase reaction the biotinylated peptide biotin-Ahx-[…] (C-terminus in amide form) was used which can be purchased e.g. from the company Biosynthan GmbH (Berlin-Buch, Germany).
For the assay 50 nl of a 100 fold concentrated solution of the test compound in DMSO was pipetted into a black low volume 384 well microtiter plate (Greiner Bio-One, Frickenhausen, Germany), 2 μl of a solution of Akt1 in assay buffer [50 mM TRIS/HCl pH 7.5, 5 mM MgCl2, 1 mM dithiothreitol, 0.02% (v/v) Triton X-100 (Sigma)] were added and the mixture was incubated for 15 min at 22° C. to allow prebinding of the test compounds to the enzyme before the start of the kinase reaction. […] The concentration of Akt1 in the assay was adjusted depending of the activity of the enzyme lot and was chosen appropriate to have the assay in the linear range, typical enzyme concentrations were in the range of about 0.05 ng/μl (final conc. in the 5 μl assay volume).
The resulting mixture was incubated 1 h at 22° C. to allow the binding of the biotinylated phosphorylated peptide to the streptavidine-XL665 and the antibodies. Subsequently the amount of phosphorylated substrate was evaluated by measurement of the resonance energy transfer from the anti-mouse-IgG-Eu-Chelate to the streptavidine-XL665.
(TR-FRET usually uses a lanthanide donor and a delayed reading to cut background.)

This note sets out measurements from US8975265B2, “Substituted imidazo[1,2-a]pyrimidines and —pyridines” (Bayer Intellectual Property GmbH, priority 2010, dated 2015).

Sequence of His-tagged human recombinant kinase full-length Akt1 (P31749 whole entry): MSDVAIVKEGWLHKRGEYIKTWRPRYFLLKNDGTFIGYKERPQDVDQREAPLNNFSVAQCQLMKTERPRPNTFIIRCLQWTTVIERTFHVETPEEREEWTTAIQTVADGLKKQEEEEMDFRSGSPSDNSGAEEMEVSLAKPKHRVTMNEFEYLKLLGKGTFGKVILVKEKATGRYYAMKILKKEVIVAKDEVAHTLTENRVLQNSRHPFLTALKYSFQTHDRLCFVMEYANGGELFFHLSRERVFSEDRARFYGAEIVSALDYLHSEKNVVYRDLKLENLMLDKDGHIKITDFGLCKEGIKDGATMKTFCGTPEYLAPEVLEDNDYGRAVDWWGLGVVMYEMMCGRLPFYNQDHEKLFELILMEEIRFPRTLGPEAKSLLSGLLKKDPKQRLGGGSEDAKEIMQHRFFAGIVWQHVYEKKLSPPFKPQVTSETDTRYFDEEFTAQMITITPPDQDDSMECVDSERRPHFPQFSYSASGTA

In the case of `NC1(c2ccc(-c3nc4ccc(F)cn4c3-c3ccccc3)cc2)CCC1` [Example 2-46], the IC50 (as a rule, the midpoint of a concentration-inhibition curve) in experiment [1] was determined as 0.059 µM; in experiment [2] it was 1.8 µM.

In the case of `CCOc1ccn2c(-c3ccccc3)c(-c3ccc(C4(N)CCC4)cc3)nc2n1` [Example 2-29], the concentration for half-maximal inhibition (IC50) was found to be 1.8 µM in experiment [2] and 0.19 µM in experiment [3].

For the compound `COCCNCc1ccc2nc(-c3ccc(C4(N)CCC4)cc3)c(-c3ccccc3)n2c1` [Example 2-24], the IC50 came out at 3.32 µM in experiment [1] and 4.5 µM in experiment [2].

On to `NC1(c2ccc(-c3nc4ccccn4c3-c3ccccc3)cc2)CCC1` [Example 2-106, 1-[4-(3-phenyl-imidazo[1,2-a]pyridin-2-yl)-phenyl]-cyclobutylamine], for which the IC50 in experiment [1] worked out at 0.202 µM; in experiment [2], 2.1 µM; in experiment [3], 0.151 µM.

As to `N#Cc1ccn2c(-c3ccccc3)c(-c3ccc(C4(N)CCC4)cc3)nc2c1` [Example 2-6], the IC50 in experiment [1] was found to be 0.333 µM; in experiment [2] it was 1.6 µM; in experiment [3] it was 0.145 µM.

For the compound `N[C@]1(c2ccc(-c3nc4nc(O)ccn4c3-c3ccccc3)cc2)C[C@H](O)C1` [Example 3-0, 2-[4-(cis-1-amino-3-hydroxy-cyclobutyl)-phenyl]-3-phenyl-imidazo[1,2-a]pyrimidin-7-ol], the half-maximal inhibitory concentration (IC50) in experiment [3] was determined as 0.384 µM.

Regarding `NC1(c2ccc(-c3nc4ccc(-c5cn[nH]c5)cn4c3-c3ccccc3)cc2)CCC1` [Example 2-132], the IC50 in experiment [1] is 0.04 µM; in experiment [2], 1.7 µM.

`NC1(c2ccc(-c3nc4cc(-c5ccc(F)cc5)ccn4c3-c3ccccc3)cc2)CCC1` [Example 2-34]: the IC50 in experiment [1] is 1.95 µM; in experiment [2], 2.2 µM; in experiment [3], 0.989 µM.

As to `CCNC(=O)c1ccc2nc(-c3ccc(C4(N)CCC4)cc3)c(-c3ccccc3)n2c1` [Example 2-62], the IC50 stood at 0.093 µM in experiment [1], 1.7 µM in experiment [2] and 0.376 µM in experiment [3].

Consider `NC1(c2ccc(-c3nc4c(CO)cccn4c3-c3ccccc3)cc2)CCC1` [Example 2-15], for which the IC50 in experiment [1] was 0.163 µM; in experiment [2], 3.2 µM.

On to `NC1(c2ccc(-c3nc4cc(Br)ccn4c3-c3ccccc3)cc2)CCC1` [Example 2-40], for which the 50% inhibitory concentration (IC50) in experiment [1] worked out at 0.237 µM; in experiment [2], 1.9 µM.

As to `NC1(c2ccc(-c3nc4cc(-c5ccccn5)ccn4c3-c3ccccc3)cc2)CCC1` [Example 2-111], the values for the IC50 in experiment [1] and in experiment [2] were 0.14 µM and 1.8 µM, respectively.

`NC1(c2ccc(-c3nc4cc(-c5cn[nH]c5)ccn4c3-c3ccccc3)cc2)CCC1` [Example 2-22]: the IC50 in experiment [1] turned out to be 0.142 µM; in experiment [2], 1.5 µM; in experiment [3] it was 0.188 µM.

In experiment [2], `Cc1ccn2c(-c3ccccc3)c(-c3ccc(C4(N)CCC4)cc3)nc2n1` [Example 1-1] displayed an IC50 of 2 µM.

As to `N#Cc1cccn2c(-c3ccccc3)c(-c3ccc(C4(N)CCC4)cc3)nc12` [Example 2-3], the half-maximal inhibitory concentration (IC50) in experiment [1] came out at 0.032 µM; in experiment [2], 2.4 µM.

Turning to `CCOc1cccn2c(-c3ccccc3)c(-c3ccc(C4(N)CCC4)cc3)nc12` [Example 2-19], the IC50 in experiment [1] was determined as 0.093 µM; in experiment [2], 1.6 µM.

On to `NC1(c2ccc(-c3nc4nc(OC5CCCCC5)ccn4c3-c3ccccc3)cc2)CCC1` [Example 2-31], for which the concentration for half-maximal inhibition (IC50) in experiment [2] is 1.9 µM.

With `NC(=O)COc1ccn2c(-c3ccccc3)c(-c3ccc(C4(N)CCC4)cc3)nc2c1` [Example 9-1], the results for the 50% inhibitory concentration (IC50) in experiment [1], in experiment [2] and in experiment [3] were 0.09 µM, 1.7 µM and 0.397 µM, respectively.

Take `COC(=O)c1ccn2c(-c3ccccc3)c(-c3ccc(C4(N)CCC4)cc3)nc2c1` [Example 2-35]: the concentration for half-maximal inhibition (IC50) in experiment [1] amounted to 0.975 µM; in experiment [2], 5 µM; in experiment [3], 0.226 µM.

Turning to `NC1(c2ccc(-c3nc4ncccn4c3-c3ccccc3)cc2)CCC1` [Example 1-0, 1-[4-(3-phenyl-imidazo[1,2-a]pyrimidin-2-yl)-phenyl]-cyclobutylamine], the IC50 in experiment [2] worked out at 1.5 µM; in experiment [3], 0.348 µM.

In experiment [2], `NC1(c2ccc(-c3nc4nc(Oc5ccccc5)ccn4c3-c3ccccc3)cc2)CCC1` [Example 2-32] displayed an IC50 of 1.8 µM.

For `COC(=O)c1ccc2nc(-c3ccc(C4(N)CCC4)cc3)c(-c3ccccc3)n2c1` [Example 2-36], the IC50 in experiment [1] turned out to be 1.02 µM; in experiment [2], 10 µM.

Turning to `NC1(c2ccc(-c3nc4ccc(Br)cn4c3-c3ccccc3)cc2)CCC1` [Example 2-16], the IC50 in experiment [1] is 0.477 µM; in experiment [2], 1.9 µM.

For `NC1(c2ccc(-c3nc4cc(CO)ccn4c3-c3ccccc3)cc2)CCC1` [Example 2-14], the IC50 in experiment [1] came out at 0.51 µM; in experiment [2], 3 µM.

Turning to `NC1(c2ccc(-c3nc4c(F)cccn4c3-c3ccccc3)cc2)CCC1` [Example 2-44], the IC50 in experiment [1] was found to be 0.048 µM; in experiment [2], 1.5 µM.

With `CNC(=O)c1ccc2nc(-c3ccc(C4(N)CCC4)cc3)c(-c3ccccc3)n2c1` [Example 2-9], the figures for the IC50 in experiment [1] and in experiment [2] were 0.062 µM and 0.9 µM, respectively.

On to `COc1cnc2nc(-c3ccc(C4(N)CCC4)cc3)c(-c3ccccc3)n2c1` [Example 1-7], for which the IC50 in experiment [1] is 0.038 µM; in experiment [2] it was 1 µM.

Consider `NC1(c2ccc(-c3nc4c(Cl)cccn4c3-c3ccccc3)cc2)CCC1` [Example 2-45], for which the half-maximal inhibitory concentration (IC50) was found to be 0.028 µM in experiment [1] and 1.8 µM in experiment [2].

`NC1(c2ccc(-c3nc4c(Br)cccn4c3-c3ccccc3)cc2)CCC1` [Example 2-39]: the 50% inhibitory concentration (IC50) in experiment [1] was 0.032 µM; in experiment [2], 1.6 µM.

Consider `CCCOc1ccn2c(-c3ccccc3)c(-c3ccc(C4(N)CCC4)cc3)nc2n1` [Example 2-2], for which the IC50 in experiment [1] is 0.25 µM; in experiment [2], 1.7 µM.

Consider `NC1(c2ccc(-c3nc4nc(C5CC5)ccn4c3-c3ccccc3)cc2)CCC1` [Example 1-2], for which the half-maximal inhibitory concentration (IC50) in experiment [2] was 1.8 µM.

`C=Cc1cccn2c(-c3ccccc3)c(-c3ccc(C4(N)CCC4)cc3)nc12` [Example 2-49]: the concentration for half-maximal inhibition (IC50) in experiment [1] turned out to be 0.303 µM; in experiment [2], 8.7 µM.

Take `COc1cccn2c(-c3ccccc3)c(-c3ccc(C4(N)CCC4)cc3)nc12` [Example 2-12]: the IC50 in experiment [1] amounted to 0.159 µM; in experiment [2], 1.3 µM.

`NC1(c2ccc(-c3nc4nc(O)ccn4c3-c3ccccc3)cc2)CCC1` [Example 2-1]: the half-maximal inhibitory concentration (IC50) was 5.4 µM in experiment [2] and 0.544 µM in experiment [3].

`CC(C)Oc1ccn2c(-c3ccccc3)c(-c3ccc(C4(N)CCC4)cc3)nc2n1` [Example 2-30]: the IC50 in experiment [1] is 0.464 µM; in experiment [2], 2.3 µM.

Consider `NC(=O)/C=C/c1ccn2c(-c3ccccc3)c(-c3ccc(C4(N)CCC4)cc3)nc2c1` [Example 2-124], for which the IC50 in experiment [1] amounted to 0.101 µM; in experiment [2] it was 2.3 µM.

Take `Cc1cnc2nc(-c3ccc(C4(N)CCC4)cc3)c(-c3ccccc3)n2c1` [Example 1-6]: the 50% inhibitory concentration (IC50) in experiment [2] was 1 µM.

`COCc1ccc2nc(-c3ccc(C4(N)CCC4)cc3)c(-c3ccccc3)n2c1` [Example 2-10]: the IC50 in experiment [1] turned out to be 0.428 µM; in experiment [2], 1.9 µM.

`CC(O)c1ccc2nc(-c3ccc(C4(N)CCC4)cc3)c(-c3ccccc3)n2c1` (centres unmarked) [Example 2-13]: the IC50 in experiment [1] was 0.758 µM; in experiment [2], 2.2 µM.

`CCOc1cnc2nc(-c3ccc(C4(N)CCC4)cc3)c(-c3ccccc3)n2c1` [Example 1-8] had an IC50 in experiment [2] of 2.3 µM.
